Target: T1, LRRK2 R1441C (Homo sapiens, UniProt Q5S007, R1441C)
T1 construct: purchased Thermo Fisher Scientific (Life Technologies) SelectScreen
Assay: SelectScreen Adapta
Assay type: biochemical
Procedure: The in vitro kinase selectivity of NU5455 was determined using the SelectScreen Broad Assay Panel (Thermo Fisher Scientific) involving activity and binding assays (Supplemental Table 1). […] Class IA PI3Ks were measured using the p85α subunit.
Kinase [ATP] % Assay Kinase [ATP] % Assay Kinase [ATP] % Assay Kinase [ATP] % Assay […]
SGK (SGK1) Km app 8.5 Z MAP4K2 (GCK) Km app 2.7 Z TLK2 n/a -0.3 L STK38 (NDR) n/a -5.9 L
MERTK (cMER) Km app 8.3 Z CDK2/cyclin A Km app 2.7 Z TGFBR1 (ALK5) n/a -0.4 L MATK (HYL) Km app -6.3 Z
FYN Km app 8.3 Z EPHA1 Km app 2.7 Z CLK3 Km app -0.5 Z ABL1 E255K Km app -6.6 Z
TEC n/a 8.1 L CDK2/cyclin E1 n/a 2.7 L MAP3K14 (NIK) n/a -0.5 L STK17A (DRAK1) n/a -6.6 L
KIT V654A n/a 8.1 L TESK2 n/a 2.7 L AKT3 (PKB gamma) Km app -0.5 Z JAK2 JH1 JH2 Km app -6.7 Z
ROS1 Km app 8.0 Z SPHK1 Km app 2.7 A MAP3K9 (MLK1) Km app -0.5 Z PRKACB (PRKAC beta) n/a -6.8 L
FGFR3 K650E Km app 7.9 Z AMPK A2/B1/G1 Km app 2.6 Z IKBKB (IKK beta) Km app -0.6 Z PDGFRA (PDGFR alpha) Km app -6.8 Z
RAF1 (cRAF) Y340D Y341D 100 7.9 Z DYRK3 Km app 2.6 Z CAMK2A (CaMKII alpha) Km app -0.6 Z NEK9 Km app -7.2 Z
PI4KA (PI4K alpha) 10 7.8 A CSNK1D (CK1 delta) Km app 2.6 Z PRKCB1 (PKC beta I) Km app -0.7 Z PDK1 Km app -7.3 Z
HIPK2 Km app 7.8 Z ACVR2A n/a 2.5 L TTK n/a -0.7 L RPS6KB1 (p70S6K) Km app -7.8 Z
CSK Km app 7.6 Z DDR2 T654M n/a 2.5 L ZAK n/a -0.7 L STK38L (NDR2) n/a -8.4 L
PRKCG (PKC gamma) Km app 7.6 Z JAK2 Km app 2.5 Z IKBKE (IKK epsilon) Km app -0.7 Z ABL1 G250E Km app -8.5 Z
SRMS (Srm) Km app 7.5 Z HIPK3 (YAK1) Km app 2.5 Z CAMK2G (CaMKII gamma) n/a -0.8 L PRKD1 (PKC mu) Km app -8.5 Z
YES1 Km app 7.4 Z AMPK (A1/B1/G2) n/a 2.4 L TLK1 n/a -0.8 L CDK5/p35 Km app -8.6 Z
RPS6KA5 (MSK1) Km app 7.4 Z MYO3B (MYO3 beta) n/a 2.3 L MAPK12 (p38 gamma) Km app -0.8 Z PDGFRA T674I Km app -8.9 Z
TNIK n/a 7.3 L PASK Km app 2.3 Z PRKCI (PKC iota) Km app -0.8 Z BLK Km app -8.9 Z
FER Km app 7.1 Z ACVRL1 (ALK1) n/a 2.3 L PKN2 (PRK2) n/a -1.0 L PRKD2 (PKD2) Km app -9.1 Z
CDK16 (PCTK1)/cyclin Y n/a 7.0 L EGFR (ErbB1) L861Q Km app 2.2 Z PIM1 Km app -1.0 Z CSNK1G2 (CK1 gamma 2) Km app -9.3 Z
MST4 Km app 6.9 Z RPS6KA3 (RSK2) Km app 2.1 Z CDK5/p25 Km app -1.1 Z ROCK1 Km app -9.5 Z
FLT1 (VEGFR1) Km app 6.5 Z STK23 (MSSK1) Km app 2.0 Z SRPK1 Km app -1.1 Z PRKCB2 (PKC beta II) Km app -9.6 Z
DYRK1A Km app 6.4 Z ALK R1275Q n/a 2.0 L BRSK1 (SAD1) Km app -1.1 Z CSNK1G1 (CK1 gamma 1) Km app -9.9 Z
PRKCD (PKC delta) Km app 6.2 Z TBK1 Km app 2.0 Z MAP3K3 (MEKK3) n/a -1.1 L ABL2 (Arg) Km app -10.3 Z
EGFR (ErbB1) Km app 6.0 Z ACVR1B (ALK4) Km app 2.0 Z AMPK A1/B1/G1 Km app -1.2 Z STK3 (MST2) Km app -10.3 Z
CDC7/DBF4 n/a 6.0 L CDK3/cyclin E1 n/a 1.9 L WNK3 n/a -1.2 L CAMK4 (CaMKIV) Km app -10.4 Z
JAK3 Km app 6.0 Z KDR (VEGFR2) Km app 1.8 Z LATS1 n/a -1.3 L MKNK1 (MNK1) Km app -10.7 Z
MAPK13 (p38 delta) Km app 5.8 Z ULK1 n/a 1.8 L DMPK n/a -1.5 L FLT3 ITD n/a -11.6 L
FRAP1 (mTOR) Km app 5.7 Z AURKB (Aurora B) Km app 1.7 Z CDK2/cyclin A1 n/a -1.6 L CHEK2 (CHK2) Km app -11.7 Z
KIT Y823D n/a 5.6 L LRRK2 Km app 1.7 A LIMK1 n/a -1.7 L LTK (TYK1) Km app -13.1 Z
ITK Km app 5.5 Z MAP2K3 (MEK3) n/a 1.6 L DYRK1B Km app -1.8 Z JAK2 JH1 JH2 V617F Km app -13.8 Z
KIT Km app 5.3 Z DAPK1 Km app 1.6 A DDR1 n/a -1.8 L EPHA8 Km app -13.8 Z
CDK7/cyclin H/MNAT1 Km app 5.3 A EPHA6 n/a 1.6 L BTK Km app -2.0 Z EGFR (ErbB1) T790M L858R Km app -14.1 Z
RET Km app 5.2 Z MAP4K1 (HPK1) n/a 1.6 L ADRBK1 (GRK2) Km app -2.0 Z MET M1250T Km app -14.5 Z […]

T1 sequence (Q5S007 whole entry R1441C): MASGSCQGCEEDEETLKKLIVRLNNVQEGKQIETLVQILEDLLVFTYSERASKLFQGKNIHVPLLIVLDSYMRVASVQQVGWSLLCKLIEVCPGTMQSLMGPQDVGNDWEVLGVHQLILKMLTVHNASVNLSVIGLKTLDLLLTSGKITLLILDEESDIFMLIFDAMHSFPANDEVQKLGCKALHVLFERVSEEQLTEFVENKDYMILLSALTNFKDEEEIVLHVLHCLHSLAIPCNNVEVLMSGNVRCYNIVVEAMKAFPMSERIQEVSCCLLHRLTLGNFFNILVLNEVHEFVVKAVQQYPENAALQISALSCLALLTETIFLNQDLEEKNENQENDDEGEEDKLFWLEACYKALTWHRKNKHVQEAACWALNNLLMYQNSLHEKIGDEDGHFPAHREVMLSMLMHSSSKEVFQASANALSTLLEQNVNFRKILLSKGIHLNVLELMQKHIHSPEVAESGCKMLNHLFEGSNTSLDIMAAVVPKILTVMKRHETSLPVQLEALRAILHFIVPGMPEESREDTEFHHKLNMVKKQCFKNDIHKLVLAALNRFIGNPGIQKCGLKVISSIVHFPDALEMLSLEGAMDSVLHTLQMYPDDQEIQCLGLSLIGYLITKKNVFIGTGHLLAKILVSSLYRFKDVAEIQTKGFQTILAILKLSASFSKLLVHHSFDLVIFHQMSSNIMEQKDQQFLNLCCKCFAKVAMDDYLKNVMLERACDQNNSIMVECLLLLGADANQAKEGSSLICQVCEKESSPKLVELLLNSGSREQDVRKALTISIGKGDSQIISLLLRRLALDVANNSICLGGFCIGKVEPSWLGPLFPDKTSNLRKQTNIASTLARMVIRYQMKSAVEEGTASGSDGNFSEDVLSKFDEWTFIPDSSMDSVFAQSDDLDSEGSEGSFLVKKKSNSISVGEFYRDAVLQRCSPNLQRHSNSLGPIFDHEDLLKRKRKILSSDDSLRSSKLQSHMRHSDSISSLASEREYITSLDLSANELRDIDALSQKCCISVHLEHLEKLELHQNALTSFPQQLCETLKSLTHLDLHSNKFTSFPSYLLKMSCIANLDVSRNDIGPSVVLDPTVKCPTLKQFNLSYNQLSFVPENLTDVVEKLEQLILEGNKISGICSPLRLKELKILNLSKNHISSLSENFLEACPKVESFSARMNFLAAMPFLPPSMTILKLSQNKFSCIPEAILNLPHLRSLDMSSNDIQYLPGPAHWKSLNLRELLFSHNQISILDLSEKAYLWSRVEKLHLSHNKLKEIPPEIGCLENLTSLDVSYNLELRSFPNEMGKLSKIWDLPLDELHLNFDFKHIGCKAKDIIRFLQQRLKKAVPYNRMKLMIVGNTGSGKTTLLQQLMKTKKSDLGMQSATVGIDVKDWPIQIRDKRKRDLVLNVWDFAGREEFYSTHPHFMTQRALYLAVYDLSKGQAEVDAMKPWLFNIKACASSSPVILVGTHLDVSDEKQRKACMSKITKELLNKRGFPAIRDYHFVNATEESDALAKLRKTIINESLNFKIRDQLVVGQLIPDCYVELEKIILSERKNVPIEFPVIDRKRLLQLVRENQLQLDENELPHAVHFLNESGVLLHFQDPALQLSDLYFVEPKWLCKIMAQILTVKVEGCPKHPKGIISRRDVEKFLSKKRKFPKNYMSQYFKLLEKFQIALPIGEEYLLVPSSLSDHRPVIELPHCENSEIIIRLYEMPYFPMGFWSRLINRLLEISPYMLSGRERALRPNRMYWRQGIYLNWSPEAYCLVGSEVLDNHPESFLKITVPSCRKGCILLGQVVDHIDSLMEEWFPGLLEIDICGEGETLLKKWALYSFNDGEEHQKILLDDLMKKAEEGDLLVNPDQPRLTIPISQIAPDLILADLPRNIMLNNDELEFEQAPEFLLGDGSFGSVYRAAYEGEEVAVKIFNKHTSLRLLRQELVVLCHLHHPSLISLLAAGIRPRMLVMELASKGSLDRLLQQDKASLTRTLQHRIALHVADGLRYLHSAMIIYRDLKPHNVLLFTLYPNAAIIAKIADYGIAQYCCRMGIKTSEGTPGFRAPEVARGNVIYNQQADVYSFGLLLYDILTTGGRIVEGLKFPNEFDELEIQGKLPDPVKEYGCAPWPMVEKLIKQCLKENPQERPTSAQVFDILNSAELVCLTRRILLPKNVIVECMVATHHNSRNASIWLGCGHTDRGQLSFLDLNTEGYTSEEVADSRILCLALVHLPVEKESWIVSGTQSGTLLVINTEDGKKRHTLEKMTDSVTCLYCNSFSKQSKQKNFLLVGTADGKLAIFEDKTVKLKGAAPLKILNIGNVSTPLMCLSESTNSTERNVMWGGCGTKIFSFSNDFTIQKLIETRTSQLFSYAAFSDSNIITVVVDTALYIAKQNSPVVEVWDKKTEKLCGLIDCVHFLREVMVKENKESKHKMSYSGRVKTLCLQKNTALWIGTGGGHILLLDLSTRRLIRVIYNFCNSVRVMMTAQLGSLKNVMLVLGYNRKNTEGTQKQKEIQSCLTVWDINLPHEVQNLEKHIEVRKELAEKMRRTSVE

CN(C(=O)CN1CCOCC1)c1ccc2sc3c(-c4cccc5c(=O)cc(N6CC7CCC(C6)O7)oc45)cccc3c2c1 [NU5455]
inhibition at 1 µM: 1.8%
